Data as given in US20180085330A1, “Dose Adjustment” (AbbVie Inc., priority 2016, published 2018).
Like-named read-outs stand apart in the source and are kept apart here. Blank lines part the entries; values can stand above or below the molecule they belong to.

Columns and labels:
[1] = Potentially significant drug interactions identified in drug interaction studies (effect on concentration); assay type: in vivo, human
Description: Table 1 provides the effect of coadministration of glecaprevir and pibrentasvir on concentrations of concomitant drugs and the effect of concomitant drugs on glecaprevir and pibrentasvir.

[2] = Drug interaction studies: pharmacokinetic parameters of coadministered drug in the presence of glecaprevir/pibrentasvir; assay type: in vivo, human; details: digoxin 0.5 mg single dose; GLE/PIB 400/120 mg once daily
Protocol: (§1) Drug interaction studies were performed with glecaprevir/pibrentasvir and other drugs that are likely to be coadministered and with drugs commonly used as probes for pharmacokinetic interactions.

[3] = Digoxin single dose with multiple doses of glecaprevir and pibrentasvir (Example 3); assay type: in vivo, human (adult male and female subjects)
Description: This Example assessed pharmacokinetics, safety, and tolerability of multiple doses of glecaprevir and pibrentasvir with a single dose of digoxin. Adult male and female subjects in general good health (N=12) were enrolled in the study.

[4] = Drug-drug interaction evaluation in overseas subjects, Phase 1 clinical studies (Example 6); assay type: in vivo, human (overseas subjects); details: coadministered with glecaprevir and pibrentasvir
Protocol: The drug-drug interaction (DDI) of glecaprevir and pibrentasvir was characterized from Phase 1 clinical studies in overseas subjects. DDI was evaluated between glecaprevir and pibrentasvir and drug transporter and CYP probes (CYP3A4, CYP1A2, CYP2D6, CYP2C9 and CYP2C19) and concomitant medications used in HCV-infected subjects including anti-retroviral (ARVs), calcium-channel blockers (CCB), angiotensin-receptor blockers (ARBs), opioids and tacrolimus. Safety and tolerability were assessed throughout the studies.

P-glycoprotein (P-gp) = P-glycoprotein (P-gp) (Homo sapiens, UniProt P08183); test: P-gp inhibition; assay type: in vitro ADME
[5] = target: T1, breast cancer resistance protein (BCRP) (Homo sapiens, UniProt Q9UNQ0); test: BCRP inhibition; assay type: in vitro ADME
T1 sequence (Q9UNQ0 1-655): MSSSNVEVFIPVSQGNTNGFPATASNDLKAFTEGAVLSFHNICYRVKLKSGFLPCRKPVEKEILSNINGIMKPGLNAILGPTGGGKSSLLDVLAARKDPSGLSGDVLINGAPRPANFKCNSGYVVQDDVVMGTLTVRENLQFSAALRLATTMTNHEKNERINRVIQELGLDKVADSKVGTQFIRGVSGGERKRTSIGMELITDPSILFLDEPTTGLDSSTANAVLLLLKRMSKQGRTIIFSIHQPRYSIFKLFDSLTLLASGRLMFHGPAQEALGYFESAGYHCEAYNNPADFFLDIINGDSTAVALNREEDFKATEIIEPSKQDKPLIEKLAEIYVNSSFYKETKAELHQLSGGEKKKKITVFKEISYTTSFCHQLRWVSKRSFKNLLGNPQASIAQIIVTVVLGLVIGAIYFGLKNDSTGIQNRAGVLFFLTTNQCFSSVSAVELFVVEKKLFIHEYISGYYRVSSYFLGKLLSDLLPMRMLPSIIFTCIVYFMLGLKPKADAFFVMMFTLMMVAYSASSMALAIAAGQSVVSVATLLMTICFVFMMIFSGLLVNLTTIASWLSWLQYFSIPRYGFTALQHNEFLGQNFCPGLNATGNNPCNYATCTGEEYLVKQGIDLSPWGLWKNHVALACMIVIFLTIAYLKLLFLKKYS

[6] = tested on: organic anion transporting polypeptide (OATP) 1B1/3; test: OATP1B1/3 inhibition; assay type: in vitro ADME
cytochrome P450 (CYP) 3A = test: CYP3A inhibition; assay type: in vitro ADME
CYP1A2 = target: T2, CYP1A2 (Homo sapiens, UniProt P05177); test: CYP1A2 inhibition; assay type: in vitro ADME
T2 sequence (P05177 1-516): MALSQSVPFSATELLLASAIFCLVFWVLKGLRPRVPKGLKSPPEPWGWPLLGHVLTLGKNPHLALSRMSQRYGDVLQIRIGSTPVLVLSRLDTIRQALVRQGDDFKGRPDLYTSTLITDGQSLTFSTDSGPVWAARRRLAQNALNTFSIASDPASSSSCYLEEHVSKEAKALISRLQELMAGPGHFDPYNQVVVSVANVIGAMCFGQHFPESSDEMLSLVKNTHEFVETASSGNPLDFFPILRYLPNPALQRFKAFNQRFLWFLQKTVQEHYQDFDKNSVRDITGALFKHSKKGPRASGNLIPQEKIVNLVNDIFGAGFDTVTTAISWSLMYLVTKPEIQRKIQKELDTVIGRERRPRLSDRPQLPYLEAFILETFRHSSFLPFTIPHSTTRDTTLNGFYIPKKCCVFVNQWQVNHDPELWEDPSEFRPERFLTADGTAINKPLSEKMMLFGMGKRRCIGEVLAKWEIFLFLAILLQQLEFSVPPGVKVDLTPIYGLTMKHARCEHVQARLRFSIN

[7] = target: T3, uridine glucuronosyltransferase (UGT) 1A1 (Homo sapiens, UniProt P22309); test: UGT1A1 inhibition; assay type: in vitro ADME
T3 sequence (P22309 26-533): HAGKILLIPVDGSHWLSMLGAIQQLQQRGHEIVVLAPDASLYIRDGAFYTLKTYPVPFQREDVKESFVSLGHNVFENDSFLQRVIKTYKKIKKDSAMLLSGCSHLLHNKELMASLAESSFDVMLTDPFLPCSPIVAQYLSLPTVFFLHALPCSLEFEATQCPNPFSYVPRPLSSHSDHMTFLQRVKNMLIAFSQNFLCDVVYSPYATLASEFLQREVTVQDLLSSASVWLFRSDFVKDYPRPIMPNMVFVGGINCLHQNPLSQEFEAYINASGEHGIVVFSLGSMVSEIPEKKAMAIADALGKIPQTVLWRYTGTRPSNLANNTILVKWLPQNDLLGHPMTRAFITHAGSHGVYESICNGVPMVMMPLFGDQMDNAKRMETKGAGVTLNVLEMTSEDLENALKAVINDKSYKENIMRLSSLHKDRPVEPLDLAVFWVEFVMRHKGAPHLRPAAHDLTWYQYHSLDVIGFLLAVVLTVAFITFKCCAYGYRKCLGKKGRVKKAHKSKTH

P-gp and/or BCRP = test: Substrate of P-gp and/or BCRP; assay type: in vitro ADME
[8] = Drug interaction studies: pharmacokinetic parameters of glecaprevir or pibrentasvir in the presence of coadministered drug; assay type: in vivo, human
Protocol: as §1

OATP1B1/3 = test: Substrate of OATP1B1/3; assay type: in vitro ADME
[9] = digoxin 0.5 mg single dose with glecaprevir 400 mg QD + pibrentasvir 120 mg QD
[10] = digoxin 0.5 mg single dose, glecaprevir 400 mg QD + pibrentasvir 120 mg QD
[11] = with atazanavir + ritonavir 300 + 100 mg once daily, GLE/PIB 300/120 mg once daily, effect on the first dose of glecaprevir and pibrentasvir
[12] = with carbamazepine 200 mg twice daily, GLE/PIB 300/120 mg single dose
[13] = with cyclosporine 100 mg single dose, GLE/PIB 300/120 mg once daily
[14] = with cyclosporine 400 mg single dose, GLE/PIB 300/120 mg single dose
[15] = with darunavir + ritonavir 800 + 100 mg once daily, GLE/PIB 300/120 mg once daily
[16] = with elvitegravir/cobicistat/emtricitabine/tenofovir alafenamide 150/150/200/10 mg once daily, GLE/PIB 300/120 mg once daily
[17] = with lopinavir/ritonavir 400/100 mg twice daily, GLE/PIB 300/120 mg once daily
[18] = with omeprazole 20 mg once daily, GLE/PIB 300/120 mg single dose
[19] = with omeprazole 40 mg once daily (1 hour before GLE/PIB), GLE/PIB 300/120 mg single dose
[20] = with rifampin 600 mg (first close), GLE/PIB 300/120 mg single dose
[21] = with rifampin 600 mg once daily, GLE/PIB 300/120 mg single dose 24 hours after final rifampin dose

Sequence of P-glycoprotein (P-gp) (P08183 whole entry): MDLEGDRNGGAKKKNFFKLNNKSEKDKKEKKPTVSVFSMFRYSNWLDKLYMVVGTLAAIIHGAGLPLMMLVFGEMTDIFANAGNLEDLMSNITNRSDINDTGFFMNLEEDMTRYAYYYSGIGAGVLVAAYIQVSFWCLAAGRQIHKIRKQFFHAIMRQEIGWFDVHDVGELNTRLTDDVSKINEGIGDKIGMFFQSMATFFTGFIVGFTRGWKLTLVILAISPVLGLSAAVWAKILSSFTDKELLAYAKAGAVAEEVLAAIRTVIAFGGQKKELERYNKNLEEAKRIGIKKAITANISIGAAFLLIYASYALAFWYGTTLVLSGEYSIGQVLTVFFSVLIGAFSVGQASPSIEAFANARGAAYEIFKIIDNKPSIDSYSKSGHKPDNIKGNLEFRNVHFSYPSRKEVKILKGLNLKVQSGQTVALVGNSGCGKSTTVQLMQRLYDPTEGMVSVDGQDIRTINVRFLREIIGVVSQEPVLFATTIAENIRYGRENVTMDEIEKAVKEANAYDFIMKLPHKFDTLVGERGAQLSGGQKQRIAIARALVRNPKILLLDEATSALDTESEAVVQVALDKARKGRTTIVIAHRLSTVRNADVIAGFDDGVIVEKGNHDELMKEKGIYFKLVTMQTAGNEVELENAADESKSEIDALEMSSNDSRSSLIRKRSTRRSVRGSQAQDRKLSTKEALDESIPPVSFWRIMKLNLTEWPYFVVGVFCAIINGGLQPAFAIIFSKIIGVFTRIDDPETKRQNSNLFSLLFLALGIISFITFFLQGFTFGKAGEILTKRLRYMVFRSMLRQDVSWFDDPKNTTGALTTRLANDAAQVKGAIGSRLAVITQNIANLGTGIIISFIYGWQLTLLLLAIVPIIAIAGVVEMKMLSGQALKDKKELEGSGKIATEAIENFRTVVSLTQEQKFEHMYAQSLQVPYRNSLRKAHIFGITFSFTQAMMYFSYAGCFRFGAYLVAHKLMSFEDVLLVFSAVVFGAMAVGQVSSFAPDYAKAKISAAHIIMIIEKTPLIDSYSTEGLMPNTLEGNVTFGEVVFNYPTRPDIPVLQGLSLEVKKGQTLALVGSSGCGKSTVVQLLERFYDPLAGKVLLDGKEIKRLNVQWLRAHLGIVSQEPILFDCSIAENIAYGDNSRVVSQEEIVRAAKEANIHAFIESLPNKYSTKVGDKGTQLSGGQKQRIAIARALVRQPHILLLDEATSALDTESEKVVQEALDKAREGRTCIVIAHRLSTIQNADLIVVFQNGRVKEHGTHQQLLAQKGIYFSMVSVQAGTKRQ

Compound: C[C@H]1O[C@@H](O[C@H]2[C@@H](O)C[C@H](O[C@H]3[C@@H](O)C[C@H](O[C@H]4CC[C@@]5(C)[C@H](CC[C@@H]6[C@@H]5C[C@@H](O)[C@]5(C)[C@@H](C7=CC(=O)OC7)CC[C@]65O)C4)O[C@@H]3C)O[C@@H]2C)C[C@H](O)[C@@H]1O [digoxin]
Effect on Concentration ([1]; concentration of the concomitant drug when coadministered with glecaprevir and pibrentasvir): ↑ digoxin
Central Value Ratio (90% CI) AUC [2]: 1.48
Central Value Ratio (90% CI) Cmax [2]: 1.72
AUCinf higher when coadministered, compared to digoxin alone [3, 9]: 48%
Cmax higher when coadministered, compared to digoxin alone [3, 9]: 72%
fraction of digoxin eliminated in urine, difference with and without glecaprevir and pibrentasvir [3, 10]: ≤ 18%
renal clearance, difference with and without glecaprevir and pibrentasvir [3, 10]: ≤ 18%
AUC increase [4]: 48%

inhibition of P-gp (P-glycoprotein (P-gp)): inhibitors
inhibition of BCRP [5]: inhibitors
inhibition of OATP1B1/3 [6]: inhibitors
inhibition of CYP3A (cytochrome P450 (CYP) 3A): weak inhibitors
inhibition of CYP1A2 (CYP1A2): weak inhibitors
inhibition of UGT1A1 [7]: weak inhibitors
substrate of P-gp and/or BCRP (P-gp and/or BCRP): substrates
Compound: COC(=O)N[C@H](C(=O)N1CCC[C@H]1c1nc2cc([C@H]3CC[C@H](c4cc5nc([C@@H]6CCCN6C(=O)[C@@H](NC(=O)OC)[C@@H](C)OC)[nH]c5cc4F)N3c3cc(F)c(N4CCC(c5ccc(F)cc5)CC4)c(F)c3)c(F)cc2[nH]1)[C@@H](C)OC [pibrentasvir]

Effect on Concentration ([1]; concomitant Darunavir, Lopinavir, Ritonavir): ↑ glecaprevir
Effect on Concentration ([1]; concomitant St. John's Wort (hypericum perforatum)): ↓ glecaprevir
Effect on Concentration ([1]; concomitant drug Carbamazepine): ↓ glecaprevir
Effect on Concentration ([1]; concomitant drug Cyclosporine): ↑ glecaprevir
Effect on Concentration ([1]; concomitant drug Efavirenz): ↓ glecaprevir
Central Value Ratio (90% CI) AUC [8, 11]: ≥6.53
Central Value Ratio (90% CI) Cmax [8, 11]: ≥4.06
Central Value Ratio (90% CI) Cmin [8, 11]: ≥14.3
Central Value Ratio (90% CI) AUC [8, 12]: 0.34
Central Value Ratio (90% CI) Cmax [8, 12]: 0.33
Central Value Ratio (90% CI) AUC [8, 13]: 1.37
Central Value Ratio (90% CI) Cmax [8, 13]: 1.30
Central Value Ratio (90% CI) Cmin [8, 13]: 1.34
Central Value Ratio (90% CI) AUC [8, 14]: 5.08
Central Value Ratio (90% CI) Cmax [8, 14]: 4.51
Central Value Ratio (90% CI) AUC [8, 15]: 4.97
Central Value Ratio (90% CI) Cmax [8, 15]: 3.09
Central Value Ratio (90% CI) Cmin [8, 15]: 8.24
Central Value Ratio (90% CI) AUC [8, 16]: 3.05
Central Value Ratio (90% CI) Cmax [8, 16]: 2.50
Central Value Ratio (90% CI) Cmin [8, 16]: 4.58
Central Value Ratio (90% CI) AUC [8, 17]: 4.38
Central Value Ratio (90% CI) Cmax [8, 17]: 2.55
Central Value Ratio (90% CI) Cmin [8, 17]: 18.6
Central Value Ratio (90% CI) AUC [8, 18]: 0.71
Central Value Ratio (90% CI) Cmax [8, 18]: 0.78
Central Value Ratio (90% CI) AUC [8, 19]: 0.49
Central Value Ratio (90% CI) Cmax [8, 19]: 0.36
Central Value Ratio (90% CI) AUC [8, 20]: 8.55
Central Value Ratio (90% CI) Cmax [8, 20]: 6.52
Central Value Ratio (90% CI) AUC [8, 21]: 0.12
Central Value Ratio (90% CI) Cmax [8, 21]: 0.14
inhibition of P-gp (P-glycoprotein (P-gp)): inhibitors
inhibition of BCRP [5]: inhibitors
inhibition of OATP1B1/3 [6]: inhibitor
inhibition of OATP1B1/3 ([6]; listed as Glecaprevir): inhibitors
inhibition of CYP3A (cytochrome P450 (CYP) 3A): weak inhibitors
inhibition of CYP1A2 (CYP1A2): weak inhibitors
inhibition of UGT1A1 [7]: weak inhibitors
substrate of P-gp and/or BCRP (P-gp and/or BCRP): substrates
substrate of OATP1B1/3 (OATP1B1/3): substrate
Compound: CC(C)(C)[C@@H]1NC(=O)O[C@@H]2CCC[C@H]2OC/C=C/C(F)(F)c2nc3ccccc3nc2O[C@@H]2C[C@@H](C(=O)N[C@]3(C(=O)NS(=O)(=O)C4(C)CC4)C[C@H]3C(F)F)N(C2)C1=O [glecaprevir, Glecaprevir]
